Experimental data from patent publication US8198061B2, “Acetylcholinesterase gene responsible for insecticide resistance and applications thereof” (priority 2002, dated 2012).

Experiments:
[1] = target: T1, Culex pipiens AChE1, sensitive S-LAB strain (glycine at position 119) (Culex pipiens, UniProt Q86GC8); test: Acetylcholinesterase activity of recombinant sensitive AChE1 (S2 cell extracts) with propoxur; assay type: biochemical; conditions: 10^−3 M of propoxur
T1 construct: The cDNAs encoding the AChE1s of, respectively, the strain S-LAB and the strain SR were cloned in the eukaryotic expression vector pAc5.1/V5-His; V5-His (from the vector pAc5.1/V5-His); made in house; host or cells: Drosophila Schneider S2 cells, transiently transfected; Triton X-100 cell extract, not purified
From the text: (§1) The cDNAs encoding the AChE1s of, respectively, the strain S-LAB and the strain SR were cloned in the eukaryotic expression vector pAc5.1/V5-His (INVITROGEN), according to conventional recombinant DNA techniques, by following standard protocols such as those described in Current Protocols in Molecular Biology, mentioned above. Drosophila cells (Schneider S2 cells) were transfected with the recombinant vectors thus obtained, using the Fugen® reagent (ROCHE), according to the manufacturer's instructions. 24 hours after transfection, the cells were harvested by centrifugation and then lyzed in a 0.25M phosphate buffer containing 1% Triton X-100. The acetylcholinesterase activity of the cell extracts obtained was measured, in the presence or in the absence of insecticide (propoxur), by the method as described in Bourguet et al., Biochemical Genetics, 1996, 34, 351-362.
(§2) The recombinant AChE1s of, respectively, the strain S-LAB and the strain SR were expressed in insect cells and the acetylcholinesterase activity was measured using cell extracts as described in example 1.

[2] = system: C. pipiens larvae; test: Larval mortality on exposure to propoxur (back crosses, ace-1 linkage study); assay type: in vivo, Culex pipiens
Protocol: With the females being indicated first, F1 crosses (S×R) and back crosses (F1×S-LAB and S-LAB×F1) were obtained by mass crossing of adults. A few larvae derived from the back crosses were treated with a dose of carbamate (propoxur, 4 mg/l) which kills 100% of sensitive larvae. The linkage between ace-1 and propoxur resistance was studied by RFLP in the surviving larvae, based on a 320 bp PCR product making it possible to identify the S and R alleles. The experiments were carried out independently, with S=SA1, S=SA4 and S=EDIT.
The linkage between the ace-1 gene and propoxur resistance was studied, in triplicate, in the following way: larvae from a backcross (S×R)×S were treated for a dose that is lethal for sensitive individuals and the ace-1 genotype was analyzed in the survivors, by PCR-RFLP.

[3] = target: T2, Culex pipiens AChE1, resistant SR strain (serine at position 119, G119S) (Culex pipiens, UniProt Q86GC8, G247S); test: Acetylcholinesterase activity of recombinant resistant AChE1 (S2 cell extracts) with propoxur; assay type: biochemical; conditions: glycine247(119)→serine247(119) mutant (SR); 10^−4 M and 10^−2 M of propoxur; FIG. 10
T2 construct: The cDNAs encoding the AChE1s of, respectively, the strain S-LAB and the strain SR were cloned in the eukaryotic expression vector pAc5.1/V5-His; V5-His (from the vector pAc5.1/V5-His); made in house; host or cells: Drosophila Schneider S2 cells, transiently transfected; Triton X-100 cell extract, not purified
From the text: as §1, §2

[4] = target: AChE; conditions: Abramson et al., Mol. Pharmacol., 1989, 36, 349; read-out: apparent affinity; cited from earlier work

Row | SMILES | activity of the AChE1 inhibited [1] [%] | larvae killed in back crosses ([2]; larvae from backcross (S×R)×S, dose lethal for sensitive individuals, all back crosses) [%] | sensitive larvae killed ([2]; sensitive larvae, propoxur 4 mg/l) [%] | sensitivity of the acetylcholinesterase to the insecticide [3] | Kd [4] [µM]
1 | CNC(=O)Oc1ccccc1OC(C)C [propoxur] | 90 | 50 | 100 | insensitive | 
2 | C=C1CCCC(C)(C)C1C/C=C(C=O)\C=C\OC(C)=O (centres unmarked) [onchidal] |  |  |  |  | 300
